Measurements reported in ChEMBL document CHEMBL1201862, “PubChem BioAssay data set” (2004).
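Cultured in 96-well plates, cells were exposed to test compound for 48 hours across five concentrations. GI50 = concentration required for 50% inhibition of growth.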 The source made the active and inactive calls. No stated cut-off is given here; in the data, active = GI50 up to about 1.1 µM and inactive = higher.

Key:
Test in all cases: NCI-60 cell line screen, 48 h
[1] = test system: NCI-H23
[2] = test system: OVCAR-4
[3] = test system: SNB-75
[4] = test system: NCI-H460
[5] = test system: SF-295
[6] = test system: HL-60
[7] = test system: SW-620
[8] = test system: HCT-116
[9] = test system: HOP-62
[10] = test system: SK-MEL-2
[11] = test system: KM12
[12] = test system: SK-MEL-28
[13] = test system: SK-OV-3
[14] = test system: UACC-257
[15] = test system: A549
[16] = test system: HOP-92
[17] = test system: K562
[18] = test system: IGROV-1
[19] = test system: EKVX
[20] = test system: SF-539

SMILES	GI50 [1]	GI50 [2]	GI50 [3]	GI50 [4]	GI50 [5]	GI50 [6]	GI50 [7]	GI50 [8]	GI50 [9]	GI50 [10]	GI50 [11]	GI50 [12]	GI50 [13]	GI50 [14]	GI50 [15]	GI50 [16]	GI50 [17]	GI50 [18]	GI50 [19]	GI50 [20]
O=C(Nc1cccc(O)c1)C(=O)C(C(=O)c1ccccc1F)C1OC(=O)c2ccccc21 (stereo not given)	27 µM (inactive)	23.9 µM (inactive)	17.5 µM (inactive)	29.4 µM (inactive)	52.6 µM (inactive)	28.7 µM (inactive)	35.7 µM (inactive)	18 µM (inactive)	29.9 µM (inactive)	20.9 µM (inactive)	18.4 µM (inactive)	31 µM (inactive)	36.1 µM (inactive)	84.5 µM (inactive)	29.4 µM (inactive)	68.1 µM (inactive)	37.3 µM (inactive)	38.7 µM (inactive)	34 µM (inactive)	15.2 µM (inactive)
COC1=C2CC(C)CC(OC)C(O)C(C)/C=C(\C)C(OC(N)=O)C(OC)/C=C\C=C(/C)C(=O)NC(=C(/C=N/C(C)(C)C)C1=O)C2=O (stereo not given)	0.849 µM (active)	1.71 µM (inactive)	0.767 µM (active)	2.44 µM (inactive)	5.02 µM (inactive)	0.479 µM (active)	3.73 µM (inactive)	3.69 µM (inactive)	5.86 µM (inactive)	4.85 µM (inactive)	4.62 µM (inactive)	4.97 µM (inactive)	24.7 µM (inactive)	2.55 µM (inactive)	2.47 µM (inactive)	0.303 µM (active)	0.82 µM (active)	13.1 µM (inactive)	3.64 µM (inactive)	1.66 µM (inactive)
CCOC(=O)/C=C/c1c(C)[nH]c(=O)[nH]c1=O	> 250 µM (inactive)	> 158 µM (inactive)	> 250 µM (inactive)	> 250 µM (inactive)	> 250 µM (inactive)	> 250 µM (inactive)	> 250 µM (inactive)	> 250 µM (inactive)	> 250 µM (inactive)	> 250 µM (inactive)	> 250 µM (inactive)	> 250 µM (inactive)	> 141 µM (inactive)	> 250 µM (inactive)	> 250 µM (inactive)	19.1 µM (inactive)	> 250 µM (inactive)	> 250 µM (inactive)	> 250 µM (inactive)	> 250 µM (inactive)
CN(CCCNc1ccc2ncn3c4ccccc4c(=O)c1c23)CCCN1C(=O)c2cccc3cc([N+](=O)[O-])cc(c23)C1=O	0.0208 µM (active)	0.131 µM (active)	0.018 µM (active)	0.00295 µM (active)	0.0134 µM (active)	0.0358 µM (active)	0.00325 µM (active)	0.00174 µM (active)	0.0472 µM (active)	1.58 µM (inactive)	0.0292 µM (active)	1.12 µM (inactive)	1.28 µM (inactive)	0.0867 µM (active)	0.00628 µM (active)	1.04 µM (active)	0.0201 µM (active)	0.00948 µM (active)	0.0561 µM (active)	0.00548 µM (active)
O=C1Sc2ccccc2/C1=N/Nc1ccccc1[N+](=O)[O-]	> 100 µM (inactive)	36.1 µM (inactive)	0.281 µM (active)	> 100 µM (inactive)	> 100 µM (inactive)	> 100 µM (inactive)	> 100 µM (inactive)	> 100 µM (inactive)	> 100 µM (inactive)	> 100 µM (inactive)	> 100 µM (inactive)	> 100 µM (inactive)	86.9 µM (inactive)	> 100 µM (inactive)	> 100 µM (inactive)	> 100 µM (inactive)	> 100 µM (inactive)	> 100 µM (inactive)	> 100 µM (inactive)	69.5 µM (inactive)
